Consider 25 compounds from US6887869B2, “Mikanolide derivatives, their preparation and therapeutic uses” (Societe de Conseils de Recherches et d'Applications …, priority 2001, dated 2005).

The test system of test [1] is Mia-PaCa2 (human pancreatic cancer cells). Nature of the test: Measurement of cell proliferation (WST1), Mia-PaCa2. Format: cell-based. Conditions: MIA PaCa-2, Mia-Paca2, 96 hours treatment, read-out: IC50 inhibitory concentration, proliferation of Mia-Paca2 cell lines. The procedure:
(§1) DU-145 (human prostate cancer cells), HT29 (cancer of the colon) and Mia-PaCa2 (human pancreatic cancer cells) were acquired from the American Tissue Culture Collection (Rockville, Md., USA).
(§2) Measurement of Cell Proliferation
(§3) The cells placed in 80 μl of Dulbecco's modified Eagle medium (Gibco-BRL, Cergy-Pontoise, France) completed with 10% of foetal calf serum inactivated by heating (Gibco-BRL, Cergy-Pontoise, France), 50000 units/l of penicillin and 50 mg/l streptomycin (Gibco-BRL, Cergy-Pontoise, France), and 2 mM of glutamine (Gibco-BRL, Cergy-Pontoise, France) were seeded on a 96-well plate on day 0. The cells were treated on day 1 for 96 hours with increasing concentrations of each of the compounds to be tested. At the end of the of this period, quantification of the cell proliferation is evaluated by a calorimetric test based on the cleavage of the tetrazolium salt WST1 by mitochondrial dehydrogenases in viable cells leading to the formation of formazan (Boehringer Mannheim, Meylan, France). These tests are carried out in duplicate with 8 determinations per concentration tested. The products are solubilised in dimethylsulphoxide (DMSO) at 10^−2 M and finally used in culture with 0.5% DMSO.
For orientation: Tetrazolium dyes change colour on reduction, which living cells bring about.

For test [2], the system named is DU-145 (human prostate cancer cells). Nature of the test: Measurement of cell proliferation (WST1), DU-145. Format: cell-based. Conditions: DU-145, 96 hours treatment, read-out: IC50 inhibitory concentration, proliferation of DU-145 cell lines. How it is done: as §1, §2, §3

The structures appear in SMILES notation. pIC50: −log10 of the molar value. A value given as a limit tells only on which side of the number the result lay.

As for `CN(C)CC1C(=O)OC2CC3(C)OC3C(O)C(N(C)C)C3=CC(OC3=O)C21` (stereo not shown) [Example 2, 12-dimethylamino-3-dimethylaminomethyl-11-hydroxy-8-methyl-5,9,15-trioxatetracyclo[11.2.1.0^2,6.0^8,10]hexadec-13(16)-ene-4,14-dione], the pIC50 in test [1] and in test [2] was at least 4.52 each time.
As for `CC12CC3OC(=O)C(CN4CCOCC4)C3C3C=C(C(=O)O3)C(N3CCOCC3)C(O)C1O2` (stereo not shown) [Example 4, 11-hydroxy-8-methyl-12-morpholino-3-morpholinomethyl-5,9,15-trioxatetracyclo[11.2.1.0^2,6.0^8,10]hexadec-13(16)-ene-4,14-dione], the pIC50 in test [1] is at least 4.52.
Consider `CC1C(=O)OC2CC3(C)OC3C(O)C(N(C)C)C3=CC(OC3=O)C21` (stereo not shown) [Example 5, 12-dimethylamino-11-hydroxy-3,8-dimethyl-5,9,15-trioxatetracyclo[11.2.1.0^2,6.0^8,10]hexadec-13(16)-ene-4,14-dione], for which the pIC50 in test [1] was at least 4.52.
On to `CC1CCN(C2C3=CC(OC3=O)C3C(CC4(C)OC4C2O)OC(=O)C3C)CC1` (stereo not shown) [Example 9, 11-hydroxy-3,8-dimethyl-12-(4-methylpiperidino)-5,9,15-trioxatetracyclo[11.2.1.0^2,6.0^8,10]hexadec-13(16)-ene-4,14-dione], for which the pIC50 in test [1] and in test [2] was at least 4.52 each time.
For the compound `CC1C(=O)OC2CC3(C)OC3C(O)C(N3CCCC3)C3=CC(OC3=O)C21` (stereo not shown) [Example 10, 11-hydroxy-3,8-dimethyl-12-pyrrolidino-5,9,15-trioxatetracyclo[11.2.1.0^2,6.0^8,10]hexadec-13(16)-ene-4,14-dione], in test [1], the pIC50 was at least 4.52.
For the compound `CC1C(=O)OC2CC3(C)OC3C(O)C(N3CCC(Cc4ccccc4)CC3)C3=CC(OC3=O)C21` (stereo not shown) [Example 12, 12-(4-benzylpiperidino)-11-hydroxy-3,8-dimethyl-5,9,15-trioxatetracyclo[11.2.1.0^2,6.0^8,10]hexadec-13(16)-ene-4,14-dione], the pIC50 in test [1] was at least 4.52.
`CC1CCN(C2C3=CC(OC3=O)C3C(CC4(C)OC4C2OC(=O)c2ccccc2)OC(=O)C3C)CC1` (stereo not shown) [Example 18, 3,8-dimethyl-12-(4-methylpiperidino)-4,14-dioxo-11-phenylcarbonyloxy-5,9,15-trioxatetracyclo[11.2.1.0^2,6.0^8,10]hexadec-13(16)-ene]: the pIC50 in test [1] and in test [2] was at least 4.52 in each case.
Turning to `CCOC(=O)OC1C(N2CCC(C)CC2)C2=CC(OC2=O)C2C(CC3(C)OC13)OC(=O)C2C` (stereo not shown) [Example 19, ethyl 3,8-dimethyl-12-(4-methylpiperidino)-4,14-dioxo-5,9,15-trioxatetracyclo[11.2.1.0^2,6.0^8,10]hexadec-13(16)-en-11-yl carbonate], in test [1], the pIC50 is at least 4.52.
Same read-out and setting: the result for `CC(C)CSCC1C(=O)OC2CC3(C)OC3C(O)C(SCC(C)C)C3=CC(OC3=O)C21` (stereo not shown) [Example 20, 11-hydroxy-12-isobutylsulphanyl-3-isobutylsulphanylmethyl-8-methyl-5,9,15-trioxatetracyclo[11.2.1.0^2,6.0^8,10]hexadec-13(16)-ene-4,14-dione] reads at least 4.52.
`CC1C(=O)OC2CC3(C)OC3C(OC(=O)C3CCCCC3)C(N(C)C)C3=CC(OC3=O)C21` (stereo not shown) [Example 24, 12-(dimethylamino)-3,8-dimethyl-4,14-dioxo-5,9,15-trioxatetracyclo[11.2.1.0^2,6.0^8,10]hexadec-13(16)-en-11-yl cyclohexanecarboxylate]: the pIC50 in test [1] and in test [2] was at least 4.52 throughout.
`CC1C(=O)OC2CC3(C)OC3C(OC(=O)c3ccc(F)cc3)C(N(C)C)C3=CC(OC3=O)C21` (stereo not shown) [Example 25, 12-(dimethylamino)-3,8-dimethyl-4,14-dioxo-5,9,15-trioxatetracyclo[11.2.1.0^2,6.0^8,10]hexadec-13(16)-en-11-yl 4-fluorobenzoate]: the pIC50 in test [1] and in test [2] was at least 4.52 each time.
For `CCCCCCC(=O)OC1C(N(C)C)C2=CC(OC2=O)C2C(CC3(C)OC13)OC(=O)C2C` (stereo not shown) [Example 27, 12-(dimethylamino)-3,8-dimethyl-4,14-dioxo-5,9,15-trioxatetracyclo[11.2.1.0^2,6.0^8,10]hexadec-13(16)-en-11-yl heptanoate], the pIC50 in test [1] and in test [2] was at least 4.52 each time.
`CC1C(=O)OC2CC3(C)OC3C(OC(=O)c3ccc(C(F)(F)F)cc3)C(N(C)C)C3=CC(OC3=O)C21` (stereo not shown) [Example 28, 12-(dimethylamino)-3,8-dimethyl-4,14-dioxo-5,9,15-trioxatetracyclo[11.2.1.0^2,6.0^8,10]hexadec-13(16)-en-11-yl 4-(trifluoromethyl)benzoate]: the pIC50 in test [1] and in test [2] was at least 4.52 in each case.
For the compound `CC1C(=O)OC2CC3(C)OC3C(OC(=O)c3cccs3)C(N(C)C)C3=CC(OC3=O)C21` (stereo not shown) [Example 29, 12-(dimethylamino)-3,8-dimethyl-4,14-dioxo-5,9,15-trioxatetracyclo[11.2.1.0^2,6.0^8,10]hexadec-13(16)-en-11-yl 2-thiophenecarboxylate], the pIC50 in test [1] and in test [2] was at least 4.52 each time.
`CC1C(=O)OC2CC3(C)OC3C(OC(=O)CC(C)(C)C)C(N(C)C)C3=CC(OC3=O)C21` (stereo not shown) [Example 30, 12-(dimethylamino)-3,8-dimethyl-4,14-dioxo-5,9,15-trioxatetracyclo[11.2.1.0^2,6.0^8,10]hexadec-13(16)-en-11-yl 3,3-dimethylbutanoate]: the pIC50 in test [1] and in test [2] was at least 4.52 in each case.
`CC1C(=O)OC2CC3(C)OC3C(OC(=O)c3cc4ccccc4s3)C(N(C)C)C3=CC(OC3=O)C21` (stereo not shown) [Example 31, 12-(dimethylamino)-3,8-dimethyl-4,14-dioxo-5,9,15-trioxatetracyclo[11.2.1.0^2,6.0^8,10]hexadec-13(16)-en-11-yl 1-benzothiophene-2-carboxylate]: the pIC50 in test [1] and in test [2] was at least 4.52 each time.
For the compound `CC1C(=O)OC2CC3(C)OC3C(OC(=O)c3ccco3)C(N(C)C)C3=CC(OC3=O)C21` (stereo not shown) [Example 32, 12-(dimethylamino)-3,8-dimethyl-4,14-dioxo-5,9,15-trioxatetracyclo[11.2.1.0^2,6.0^8,10]hexadec-13(16)-en-11-yl 2-furoate], the pIC50 in test [1] and in test [2] was at least 4.52 in each case.
As to `CC1C(=O)OC2CC3(C)OC3C(OC(=O)c3ccc([N+](=O)[O-])o3)C(N(C)C)C3=CC(OC3=O)C21` (stereo not shown) [Example 33, 12-(dimethylamino)-3,8-dimethyl-4,14-dioxo-5,9,15-trioxatetracyclo[11.2.1.0^2,6.0^8,10]hexadec-13(16)-en-11-yl 5-nitro-2-furoate], the pIC50 in test [1] is at least 4.52.
For `CC1C(=O)OC2CC3(C)OC3C(OC(=O)Cc3cccs3)C(N(C)C)C3=CC(OC3=O)C21` (stereo not shown) [Example 35, 12-(dimethylamino)-3,8-dimethyl-4,14-dioxo-5,9,15-trioxatetracyclo[11.2.1.0^2,6.0^8,10]hexadec-13(16)-en-11-yl 2-thienylacetate], in test [1], the pIC50 is at least 4.52.
On the same count and under the same terms, the result for `CC1C(=O)OC2CC3(C)OC3C(OC(=O)COc3ccccc3)C(N(C)C)C3=CC(OC3=O)C21` (stereo not shown) [Example 36, 12-(dimethylamino)-3,8-dimethyl-4,14-dioxo-5,9,15-trioxatetracyclo[11.2.1.0^2,6.0^8,10]hexadec-13(16)-en-11-yl phenoxyacetate] reads at least 4.52; that for `CC1C(=O)OC2CC3(C)OC3C(OC(=O)Nc3ccc(C(C)(C)C)cc3)C(N(C)C)C3CC(OC3=O)C21` (stereo not shown) [Example 37, 8-(dimethylamino)-3,10a-dimethyl-2,6-dioxodecahydro-4,7-methenofuro[3,2-c]oxireno[f]oxacycloundecin-9-yl 4-tert-butylphenylcarbamate], at least 4.52.
As for `COc1ccccc1NC(=O)OC1C(N(C)C)C2CC(OC2=O)C2C(CC3(C)OC13)OC(=O)C2C` (stereo not shown) [Example 39, 8-(dimethylamino)-3,10a-dimethyl-2,6-dioxodecahydro-4,7-methenofuro[3,2-c]oxireno[f]oxacycloundecin-9-yl 2-methoxyphenylcarbamate], the pIC50 in test [1] and in test [2] was at least 4.52 throughout.
As to `CSc1ccccc1NC(=O)OC1C(N(C)C)C2CC(OC2=O)C2C(CC3(C)OC13)OC(=O)C2C` (stereo not shown) [Example 40, 8-(dimethylamino)-3,10a-dimethyl-2,6-dioxodecahydro-4,7-metheno-furo[3,2-c]oxireno[f]oxacycloundecin-9-yl 2(methylthio)phenylcarbamate], the pIC50 in test [1] and in test [2] was at least 4.52 in each case.
`CCOc1ccccc1NC(=O)OC1C(N(C)C)C2CC(OC2=O)C2C(CC3(C)OC13)OC(=O)C2C` (stereo not shown) [Example 41, 8-(dimethylamino)-3,10a-dimethyl-2,6-dioxodecahydro-4,7-methenofuro[3,2-c]oxireno[f]oxacycloundecin-9-yl 2-ethoxyphenylcarbamate]: the pIC50 in test [1] and in test [2] was at least 4.52 in each case.
On to `CC1C(=O)OC2CC3(C)OC3C(OC(=O)Nc3ccsc3)C(N(C)C)C3CC(OC3=O)C21` (stereo not shown) [Example 42, 8-(dimethylamino)-3,10a-dimethyl-2,6-dioxodecahydro-4,7-methenofuro[3,2-c]oxireno[f]oxacycloundecin-9-yl thien-3-ylcarbamate], for which the pIC50 in test [1] and in test [2] was at least 4.52 in each case.
